Results from patent US10233180B2, “Substituted nitrogen-containing heterocyclic derivatives, pharmaceutical compositions comprising the same and applications of antitumor thereof” (ZHEJIANG UNIVERSITY, priority 2014, dated 2019).

How the values were obtained:
[1] = target: T1, Akt1 (Homo sapiens, UniProt P31749); assay: AKT1/PKBα KinEASE FP Fluorescein Green Assay (fluorescence polarization kinase kit); format: biochemical; details: 1 h reaction, read-out: Inhibitory activities against Akt1 (IC50)
T1 construct: purchased 32-021
T1 sequence (P31749 whole entry): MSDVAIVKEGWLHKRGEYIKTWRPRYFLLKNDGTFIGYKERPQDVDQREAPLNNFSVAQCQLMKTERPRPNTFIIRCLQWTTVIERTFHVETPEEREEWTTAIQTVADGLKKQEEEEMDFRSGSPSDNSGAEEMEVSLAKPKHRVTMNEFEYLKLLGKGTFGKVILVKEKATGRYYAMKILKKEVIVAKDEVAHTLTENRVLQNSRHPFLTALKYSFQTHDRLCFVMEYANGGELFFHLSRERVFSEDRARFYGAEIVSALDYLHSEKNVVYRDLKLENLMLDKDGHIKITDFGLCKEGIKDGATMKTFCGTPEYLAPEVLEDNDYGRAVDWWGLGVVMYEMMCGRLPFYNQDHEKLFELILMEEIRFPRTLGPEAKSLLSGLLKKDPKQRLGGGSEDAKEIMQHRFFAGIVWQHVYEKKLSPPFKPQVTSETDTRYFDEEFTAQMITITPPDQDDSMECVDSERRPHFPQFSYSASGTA
Procedure: Second, method for determining the inhibitory activities of substituted nitrogen-containing heterocyclic derivatives in the present invention against Akt1 enzyme:
The inhibitory activities of compounds against AKT1/PKBα are determined by using AKT1/PKBα KinEASE™ FP Fluorescein Green Assay (Green fluorescence detection system of Kinase).
Principle adopted by the fluorescence polarization detection of protein kinase B is a competitive reaction: the phosphorylated tracers labeled with fluorescence will compete with unlabeled phosphorylated products produced by reacting with protein kinase B to combine anti-serine antibodies. […] However, in the reaction mixture containing phosphorylated products, fewer tracers will combine with antibodies (fluorescent tracers are replaced from the antibodies), and signals sent our occur depolarizing. Therefore, the change of polarization is directly related to the activity of protein kinase B in the reaction.
Each of 0.25 μl of compounds with a concentration of 50 μM and the positive control are added to a 384-well plate at room temperature, and each sample is provided with three parallel wells, and then 10 μl of STK Substrate 3 Working Solution, 5 μl of AKT1/PKBα Working Solution, 10 μl of ATP Working Solution are added to each sample respectively, the mixtures are slightly vibrated and shaked for a few minutes. Reaction is carried out just after the adding 10 μl of ATP Working Solution, from this time, reacting for 1 h. After 1 h, 5 μl of STK Stop Mix and 5 μl of STK Antibody Mix are added to each sample respectively to stop the reaction. The samples are maintained for 4 h at room temperature after adding is completed, the polarization values of samples are determined by fluorescence polarization of Microplate Reader (Detection of the signals is valid within 24 h), the inhibitory rate of compounds against the enzyme is calculated by polarization value, and thereby IC50 is calculated.
Experiment is set up four control groups at the same time, which are Buffer Control Wells, Tracer Control Wells, No Enzyme Wells and blank control of dimethyl sulfoxide, respectively. Thus obtained data are used to calculate the inhibitory rate (the preparation methods of above various solution required for determining the activities of compounds against enzyme refer to the specification of the kit of AKT1/PKBα KinEASE™ FP Fluorescein Green Assay Catalog #32-021).

[2] = system: human colon cancer cell strain HCT-116; assay: MTT assay, inhibition of tumor cell growth in vitro, 72 h; format: cell-based; details: Homo sapiens, HCT-116, MTT, read-out: Antitumor proliferative activities of tumor cell (IC50, μM) HCT-116 (converted)
Procedure: (§1) First, inhibitory activity on tumor proliferation in vitro is determined and the structure activity relationship is preliminarily studied, in which different solid tumor cell strains are selected for determining the antitumor activities in vitro of the synthesized compounds.
(§2) Cell strains: Human ovarian cancer cell strain (OVCAR8), colon adenocarcinoma cell strain (HCT-116)
HCT-116: RPMI 1640+Fetal Bovine Serum
(§3) Preparing method of medicines: Dissolving the medicine in DMSO to make a 50 mM stock solution, and diluting it according to a certain ratio to obtain 5 different concentrations.
(§4) Two selected tumor cells OVCAR8 and HCT-116 are incubated at 37° C. in a 5% CO2 incubator, which are subcultured when cells grow up to a density of 70˜90% (adherent cells are subcultured after digesting by Duck's EDTA) for later experiments.
(§5) Compounds are dissolved and diluted by dimethyl sulfoxide (DMSO), and tumor cells OVCAR8 and HCT-116 are seeded in a 96-well plate at a density of 4000 cells/200 μl/well, 1 μl of the compounds are added to each well with the final concentration of 50 μM, 10 μM, 2 μM, 0.4 μM and 0.08 μM, which is incubated for 72 h at 37° C. in a 5% CO2 incubator with DMSO (1%) as blank control.
(§6) The calculating formula of cell inhibitory rate is: cell inhibitory rate %=(the OD value of the control group−the OD value of the medication group)/the OD value of the control group×100%, the half maximal inhibitory concentration (IC50) is obtained by Bliss method.

[3] = system: Human ovarian cancer cell strain OVCAR-8; assay: as above; format: cell-based; details: Homo sapiens, OVCAR-8, MTT, read-out: Antitumor proliferative activities of tumor cell (IC50, μM) OVCAR-8
Procedure: as §1, §2
Medium: OVCAR8: RPMI 1640+Fetal Bovine Serum
as §3, §4, §5, §6

IC50 [1] [nM]	IC50 [2] [µM]	IC50 [3] [µM]	SMILES
45	3.78	1.22	Cn1ncc(Cl)c1-c1coc(C(=O)N[C@H]2CNCC[C@@H]2c2ccc(Cl)cc2)c1 (racemic) [Compound 23, 4-(4-chloro-1-methyl-1H-pyrazol-5-yl)-N-(3,4-trans-4-(4-chlorphenyl)piperidin-3-yl)furan-2-formamide]
4	1.47	1.06	CCc1cnn(C)c1-c1ccc(C(=O)N[C@@H]2CNCC[C@H]2c2cccc(F)c2)s1 [Compound 145, 5-(4-ethyl-1-methyl-1H-pyrazol-5-yl)-N-((3S, 4S)-4-(3-fluorophenyl)piperidin-3-yl)thiophene-2-formamide]
5	3.78	3.68	CCc1sc(C(=O)N[C@H]2CNCC[C@@H]2c2cnc3c(c2)CCC(C)C3)cc1-c1c(C(C)C)cnn1C (stereo partly drawn) [Compound 14, 5-ethyl-4-(4-isopropyl-1-methyl-1H-pyrazol-5-yl)-N-(3,4-trans-4-(7-methyl-5,6,7,8-tetrahydroquinolin-3-yl)piperidin-3-yl)thiophene-2-formamide]
9	0.78	1.3	Cn1ncc(Cl)c1-c1cc(C(=O)N[C@@H]2CNC(CCN3CCOCC3)C[C@H]2c2ccc(Cl)c(Cl)c2)oc1Cl (stereo partly drawn) [Compound 109, 5-chloro-4-(4-chloro-1-methyl-1H-pyrazol-5-yl)-N-((3S,4S)-4-(3,4-dichlorophenyl)-6-(2-(morpholin-1-yl)ethyl)piperidin-3-yl)furan-2-formamide]
972	2.27	6.01	Cc1cnn(C)c1-c1cnc(C(=O)N[C@H]2CNCC[C@@H]2c2ccc[nH]2)nc1C (racemic) [Compound 60, 4-methyl-5-(1,4-dimethyl-1-methyl-1H-pyrazol-5-yl)-N-(3,4-trans-4-(pyrrole-2-yl)piperidins-3-yl)pyrimidine-2-formamide]
0.3	0.69	0.53	CCC[C@H]1CNC[C@@H](NC(=O)c2cc(-c3c(Cl)cnn3C)c(Cl)s2)[C@@H]1c1cccc(F)c1 [Compound 134, 5-chloro-4-(4-chloro-1-methyl-1H-pyrazol-5-yl)-N-((3S,4S,5R)-4-(3-fluorophenyl)-5-propylpiperidin-3-yl)thiophene-2-formamide]
18	1.83	5.69	Cc1c(C(=O)N[C@H]2CNCC[C@@H]2C2CCCC(Cl)C2)sc(Cl)c1-c1ncnn1C (stereo partly drawn) [Compound 18]
85	3.11	0.68	CC(C)c1cnn(C)c1-c1nc(C(=O)N[C@H]2CNCC[C@@H]2C2CCC(F)C2)ncc1Cl (stereo partly drawn) [Compound 51, 5-chloro-4-(4-isopropyl-1-methyl-1H-pyrazol-5-yl)-N-(3,4-trans-4-(3-fluorocyclopentane)piperidin-3-yl)pyrimidine-2-formamide]
0.5	4.1	1.06	CCCC1C[C@@H](c2ccc(Cl)c(Cl)c2)[C@H](NC(=O)c2cc(-c3c(Cl)cnn3C)c(Cl)o2)CN1 (stereo partly drawn) [Compound 130, 5-chloro-4-(4-chloro-1-methyl-1H-pyrazol-5-yl)-N-((3S,4S)-4-(3,4-dichlorophenyl)-6-propylpiperidin-3-yl)furan-2-formamide]
7	1.21	3.38	CNC(=O)CC1C[C@@H](c2ccc(F)c(F)c2)[C@H](NC(=O)c2ccc(-c3c(Cl)cnn3C)c(Cl)c2)CN1 (stereo partly drawn) [Compound 99, 3-chloro-4-(4-chloro-1-methyl-1H-pyrazol-5-yl)-N-((3S,4S)-4-(3,4-difluorophenyl)-6-(2-(methylamido)-2-oxoethyl)piperidin-3-yl)benzamide]
8	4.21	1.07	Cc1occc1-c1cc(-c2c(Cl)cnn2C)ccc1C(=O)N[C@@H]1CNCC[C@H]1c1cccc(F)c1 [Compound 88, 4-(4-chloro-1-methyl-1H-pyrazol-5-yl)-N-((3S,4S)-4-(3-fluorophenyl)piperidin-3-yl)-2-(2-methylfuran-3-yl)benzamide]
345	3.22	3.48	Cn1ncc(Cl)c1-c1coc(C(=O)N[C@H]2CNC[C@@H]2c2ccc(F)c(F)c2)c1 (racemic) [Compound 66]
272	20.4	10.6	Cn1ncc(Br)c1-c1coc(C(=O)N[C@H]2CNC[C@@H]2c2ccc(C(F)(F)F)cc2)c1 (racemic) [Compound 67, 4-(4-bromo-1-methyl-1H-pyrazol-5-yl)-N-(3,4-trans-4-(4-trifluoromethylphenyl)pyrrolidin-3-yl)furan-2-formamide]
118	1.56	1.69	Cn1ncc(Cl)c1-c1cc(C(=O)N[C@@H]2CNCC[C@H]2c2ccc(Cl)c(Cl)c2)oc1Cl [Compound 40, 5-chloro-4-(4-chloro-1-methyl-1H-pyrazol-5-yl)-N-((3S,4S)-4-(3,4-dichlorophenyl)piperidin-3-yl)furan-2-formamide]
2	2.81	3.68	C[C@H]1CNC[C@@H](NC(=O)c2cc(-c3c(Cl)cnn3C)c(Cl)o2)[C@@H]1c1cccc(F)c1 [Compound 136, 5-chloro-4-(4-chloro-1-methyl-1H-pyrazol-5-yl)-N-((3S, 4S, 5R)-4-(3-fluorophenyl)-5-methylpiperidin-3-yl)furan-2-formamide]
9	0.57	2.04	Cn1ncc(Cl)c1-c1cc(C(=O)N[C@@H]2CNC(CCN3CCCCC3)C[C@H]2c2ccc(Cl)c(Cl)c2)oc1Cl (stereo partly drawn) [Compound 108, 5-chloro-4-(4-chloro-1-methyl-1H-pyrazol-5-yl)-N-((3S,4S)-4-(3,4-dichlorophenyl)-6-(2-(piperidin-1-yl)ethyl)piperidin-3-yl)furan-2-formamide]
678	3.14	13.3	CCCc1cc(C(=O)N[C@H]2CNCC[C@@H]2c2cc(OC)cc(OC)c2)ccc1-c1c(Br)cnn1C (racemic) [Compound 54, 3-n-propyl-4-(4-bromo-1-methyl-1H-pyrazol-5-yl)-N-(3,4-trans-4-(3,5-dimethoxyphenyl)piperidin-3-yl)phenyl formamide]
3	4.43	1.19	C[C@H]1CNC[C@@H](NC(=O)c2ccc(-c3c(Cl)cnn3C)s2)[C@@H]1c1cccc(F)c1 [Compound 150, 5-(4-chloro-1-methyl-1H-pyrazol-5-yl)-N-((3S, 4S, 5R)-4-(3-fluorophenyl)-5-methylpiperidin-3-yl)thiophene-2-formamide]
99	1.41	6.45	Cn1ncc(Cl)c1-c1cc(C(=O)N[C@H]2CNCC[C@@H]2c2ccc(Cl)cc2)oc1Cl (racemic) [Compound 2, 5-chloro-4-(4-chloro-1-methyl-1H-pyrazol-5-yl)-N-(3,4-trans-4-(4-chlorphenyl)piperidin-3-yl)furan-2-formamide]
1	0.43	1.88	CCC[C@H]1CNC[C@@H](NC(=O)c2cc(-c3c(Cl)cnn3C)c(Cl)o2)[C@@H]1c1cccc(F)c1 [Compound 137, 5-chloro-4-(4-chloro-1-methyl-1H-pyrazol-5-yl)-N-((3S, 4S, 5R)-4-(3-fluorophenyl)-5-propylpiperidin-3-yl)furan-2-formamide]
